Several values for one entry are separate records, joined by “and”; a condition that tells them apart may be missing. Equal values may be shown once.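 1) Cells in 96-well plates. 2) Compound, 48 h, 5 concentrations. 3) Linear interpolation between surrounding doses. 4) Unreached endpoint = highest concentration. Abbreviation: GI50, concentration required for 50% inhibition of growth. TGI: concentration producing complete growth inhibition.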
Key:
Test in all cases: DTP human tumour cell line panel, 48 h
UO-31 renal = tested on: UO-31 renal
SF-268 CNS = tested on: SF-268 CNS
NCI-H226 lung = tested on: NCI-H226 lung
CAKI-1 renal = tested on: CAKI-1 renal
SK-OV-3 ovarian = tested on: SK-OV-3 ovarian
HL-60(TB) leukemia = tested on: HL-60(TB) leukemia
NCI-H522 lung = tested on: NCI-H522 lung
A498 renal = tested on: A498 renal
UACC-62 melanoma = tested on: UACC-62 melanoma
PC-3 prostate = tested on: PC-3 prostate

SMILES	GI50 (UO-31 renal)	TGI (UO-31 renal) [µM]	GI50 (SF-268 CNS) [µM]	TGI (SF-268 CNS) [µM]	GI50 (NCI-H226 lung) [µM]	TGI (NCI-H226 lung)	GI50 (CAKI-1 renal)	TGI (CAKI-1 renal) [µM]	GI50 (SK-OV-3 ovarian)	TGI (SK-OV-3 ovarian) [µM]	GI50 (HL-60(TB) leukemia)	TGI (HL-60(TB) leukemia)	GI50 (NCI-H522 lung) [µM]	TGI (NCI-H522 lung) [µM]	GI50 (A498 renal) [µM]	TGI (A498 renal) [µM]	GI50 (UACC-62 melanoma) [µM]	TGI (UACC-62 melanoma)	GI50 (PC-3 prostate)	TGI (PC-3 prostate) [µM]
Cc1cc2c(F)c(Oc3ncnn4cc(OC[C@@H](C)OC(=O)[C@H](C)N)c(C)c34)ccc2[nH]1	7.58 µM	21.4	8	23.5	7.75	24.8 µM	7.21 µM	21.5	12.4 µM	26.7	7.2 µM	26.3 µM	11.1	24.7	4.55	17.3	8.67	21.9 µM	5.28 µM	23.9
C[N+](C)(CCCCCC[N+](C)(C)CCCN1C(=O)c2cc3ccccc3cc2C1=O)CCCN1C(=O)c2ccccc2C1=O	> 37.5 µM	> 37.5	> 37.5	> 37.5	> 37.5	> 37.5 µM	> 37.5 µM	> 37.5	> 37.5 µM	> 37.5	> 37.5 µM	> 37.5 µM	> 37.5	> 37.5	> 37.5	> 37.5	> 37.5	> 37.5 µM	> 37.5 µM	> 37.5
O=C1C(=O)c2ccccc2C(O)=C1C(CCc1ccccc1)C1=C(O)c2ccccc2C(=O)C1=O		> 100		> 100		> 100 µM		> 100		> 100		15.4 µM		> 100		> 100		34.5 µM		> 100
C[C@H]1CCC/C=C/[C@@H]2C[C@H](O)C[C@H]2[C@H](O)[C@@H](S(=O)CCN(C)C)CC(=O)O1 (stereo partly specified)	0.184 µM	> 100	0.0564		0.0562	> 100 µM	0.389 µM		0.295 µM	> 67.6	0.303 µM	> 100 µM	0.0677	0.191	0.116		0.0667	> 100 µM	0.26 µM	> 23.2
COc1ccc(-c2nc(-c3cn(C)c4ncccc34)cs2)cc1	> 100 µM	> 100	82.6	> 100	> 100	> 100 µM	18.2 µM	> 100	> 100 µM	> 100	9.11 µM	> 100 µM	14.9	> 100	0.776	93.9	13	> 100 µM	18.3 µM	> 100
C=C(CN1CCc2ccccc2C1)c1ccc(C(=O)Nc2ccc(N)cc2)cc1	3.93 µM	30.5	23.5	> 100	58.5	> 100 µM	19.6 µM	> 100	19.5 µM	53.7	7.07 µM	36.7 µM	3.89	21	21.4	> 100	22.1	> 100 µM	3.08 µM	48
COc1c(O)ccc2c1CN1CCc3cc4c(cc3C1C2)OCO4 (stereo unspecified)		> 100		> 100		> 100 µM		> 100		> 100		> 100 µM		36.1		> 78.9		> 100 µM		> 100
COc1ccc(-c2cn[nH]c2-c2cc(OC)c(OC)c(OC)c2)cc1N	0.191 µM and 0.118 µM	> 100		> 100		> 100 µM and 56.3 µM	< 0.01 µM and 0.0324 µM	> 100	< 0.01 µM and 0.0833 µM	> 100	< 0.01 µM and 0.0248 µM	< 0.01 µM and 0.0834 µM	< 0.01		< 0.01		< 0.01	70.1 µM and > 100 µM	< 0.01 µM and 0.0339 µM	> 100
CC(C)(O)C1OCC(C2CCC3(C)C4=CCC5C(C)(C)C(O)CCC5(C)C4CCC23C)CC1O (stereo unspecified)		41.8		30.4		27.9 µM		29.4		31.5		> 100 µM		23.6		30.4		29.5 µM		26.7
O=C1CCC2(C=C(Br)C(=O)C(Br)=C2)O1	5.54 µM	11.4	15.1	28.6	17.6	36.2 µM	0.611 µM	1.91	17.4 µM	31.3	1.4 µM	6.18 µM	0.31	1.05	16.6	30.3	14.8	29 µM	15.8 µM	31.3
CC(NNC(=S)N1CCCCCC1)c1ccc2ccccc2n1 (stereo unspecified)	0.478 µM	14.1	1.72	43.7	2.74	23.2 µM	0.456 µM	10.8	6.24 µM	26.9	0.363 µM	12.1 µM	2.69	21.6	4.61	22.1	1.69	11.5 µM	2.07 µM	> 63
C/C=C(\C)C(=O)O[C@H]1C=CC(=O)O[C@H]1CNC(=O)[C@H](C)O	16.9 µM	33.4	16.7	35.7	17.9	46.7 µM	26.8 µM	44.4	52.1 µM	> 100	16.8 µM	39.3 µM	11.6	31	22.8	43.7	16.1	30.5 µM	24.5 µM	79.4
CC1=Cc2cc3[n-]c(cc4nc(cc5[n-]c(cc1n2)cc5C)C(C)=C4CCC(=O)O)c(CCC(=O)O)c3C.[Pd+2]	9.73 µM	21.5	20.6	47.7	8.95	17.8 µM	27 µM	48.6	11.5 µM	30.1	7.21 µM	14.2 µM		> 26.7	12.6	29.8	5.29	34.1 µM	> 100 µM	> 100
Cc1ccc2c(N)c(C(=O)N[C@H]3CCc4cc(N5CC6CCC(C5)N6)ccc4C3)sc2n1	0.577 µM	3.24	0.42	2.51	0.452	2.58 µM	0.357 µM	2.96	0.422 µM	2.99	0.172 µM	1.31 µM	0.265	1.59	0.775	2.65	0.709	3.11 µM	0.676 µM	

From PubChem BioAssay (NCI)
